Measured values reported in US20050239724A1, “Skin penetration enhancing components” (Wyeth, priority 1997, published 2005).

Experiments:
[1] = Skin biopsy tissue concentration, four 0.7 mm horizontal sections, acetonitrile extraction (Example 1); assay type: in vivo; settings: human, 8 % sirolimus in the formulation
Description: In parallel, skin biopsies were taken from the individuals after 7 hours, the biopsy samples were glued to a glass slide and serially sectioned horizontally into 4 layers each 0.7 mm thick and extracted with acetonitrile.

[2] = tested on: chronic plaque psoriasis; assay: Double blind left-right comparison of topical sirolimus in chronic plaque psoriasis (Example 3); assay type: in vivo, human
Description: A double blind, left-right comparison of the effect of applying topical sirolimus in formulations as described in Examples 1 and 2, to 24 patients with chronic (over three months) plaque psoriasis was conducted. (22 out of the 24 patients were eventually analysed.) A single target plaque was treated for the first 6 weeks with the lower potency formulation of Example 2. After this the active treatment was increased to the higher potency formulation of Example 1 for 6 weeks unless a clear improvement on one side had already occurred.
Subjects were all aged over 18 years, were able to apply creams and had no other significant medical problems. Transaminases were not more than twice the upper limit of normal and subjects were selected to avoid those likely to have a holiday in sunlight during the 6-12 weeks of the trial.
Before the trial started, there was a two week washout period in which only bland emollients were applied to the target lesions.
Treatment was randomised and double blind. Hands were thoroughly washed between the twice daily application of the test formulations. The active formulation was applied consistently to one plaque while a control comprising only the vehicle base was applied consistently to the plaque on the opposite side. Where possible the arms or elbows were selected as target areas as cross contamination is less likely at these sites.
(§1) Assessments were done at weeks 0, 2, 4 and 6 on the low potency treatment and at 8, 10 and 12 on the higher dose formulation, provided there were no signs or laboratory evidence of toxicity. Clinical scoring was done at each attendance and areas traced at the start and finish of treatment. Biopsies from active and control lesions were performed at the end of treatment or at withdrawal. Biopsies were not done if an adverse event such as a reaction to the application occurred as this would influence the measures being assessed.
The lesions were also assessed at fortnightly intervals with subjective scoring on a scale of 0-8 for erythema, thickening, and scaling. […] These included pulsed A scan ultrasound measurement of lesion thickness and erythema measured with a reflectance erythema metre, both were averaged over 5 areas in each psoriatic lesion and were validated using a previous study which was performed using betamethasome as a reference.
At each visit we measured the full blood count, biochemistry, including urea, electrolytes, liver enzymes, bilirubin, calcium, magnesium, uric acid, glucose, amylase, muscle enzymes, lipids and cholesterol. […]
(§2) Cell counting in tissues was automated, using computer assisted image analysis (Seescan). Data was analysed by Student's T test for paired data and Wilcoxon's test.

[3] = tested on: Ki-67; assay: Biopsy immunohistochemistry, Ki-67 proliferating cells in the epidermis; assay type: in vivo, human; settings: lesion biopsy at end of treatment; control mean 83/mm^3; P-0.027 (unpaired T test)
Description: as §1
(§3) In biopsies, epidermal thickness was measured and immunoperoxidase immunohistochemistry done using the following antibodies to count cells in a blinded fashion:
(§4) Thus, antibody Ki-67 was used to give a measure of hyperproliferation in the epidermis and CD4 helper lymphocytes were used to give a measure of auto-immune activity which drives psoriasis.
as §2

[4] = Venous blood sirolimus levels after single topical application (MSGCMS); assay type: in vivo, human; settings: normal skin, 4, 7 and 24 hours
Description: A formulation was formed of 8% sirolimus and 92% of a vehicle of capric acid (50%) with benzyl alcohol (50%). This was tested in single application experiments on four individuals with normal skin.
(§5) A formulation of sirolimus (2.2%) in a vehicle comprising isopropyl myristate 40%, benzyl alcohol 10% and capric acid 50% was tested in single application experiments on three individuals with normal skin. […] After 7 hours biopsy samples were taken from two of the individuals. These were bisected in parallel with the surface to give an upper and lower half, roughly corresponding to the epidermis and dermis. The skin was homogenised with acetonitrile and sirolimus concentration was determined by HPLC.

[5] = tested on: CD4 helper lymphocytes; assay: Biopsy immunohistochemistry, CD4 helper lymphocytes; assay type: in vivo, human; settings: lesion biopsy at end of treatment; control 61/mm^3; P-0.0026 (unpaired T-test)
Description: as §1, §3, §4, §2

[6] = Skin biopsy tissue concentration, upper and lower half, HPLC (Example 2); assay type: in vivo, human; settings: 7 hours after application, 2.2% sirolimus in capric acid:isopropyl myristate:benzyl alcohol 50:40:10; for concentration at 7 h: human, skin biopsy, topical, 2.2 % sirolimus in the formulation, Subject A
Description: as §5

Question: What does the source list for `CO[C@H]1C[C@@H]2CC[C@@H](C)[C@@](O)(O2)C(=O)C(=O)N2CCCC[C@H]2C(=O)O[C@H]([C@H](C)C[C@@H]2CC[C@@H](O)[C@H](OC)C2)CC(=O)[C@H](C)/C=C(\C)[C@@H](O)[C@@H](OC)C(=O)[C@H](C)C[C@H](C)/C=C/C=C/C=C/1C` [sirolimus]?
Answer: concentration at 7 h ([1]; section 1 (surface, 0-0.7 mm), topical, subject A, section 1 (surface, 0-0.7 mm), 7 hours after application, 8% sirolimus in capric acid:benzyl alcohol 50:50, read-out: Sirolimus concentration, skin section 1): 59000 ng/g; concentration at 7 h ([1]; section 1 (surface, 0-0.7 mm), topical, subject B, section 1 (surface, 0-0.7 mm), 7 hours after application, 8% sirolimus in capric acid:benzyl alcohol 50:50, read-out: Sirolimus concentration, skin section 1): 288000 ng/g; concentration at 7 h ([1]; section 1 (surface, 0-0.7 mm), topical, subject C, section 1 (surface, 0-0.7 mm), 7 hours after application, 8% sirolimus in capric acid:benzyl alcohol 50:50, read-out: Sirolimus concentration, skin section 1): 301000 ng/g; concentration at 7 h ([1]; section 1 (surface, 0-0.7 mm), topical, subject D, section 1 (surface, 0-0.7 mm), 7 hours after application, 8% sirolimus in capric acid:benzyl alcohol 50:50, read-out: Sirolimus concentration, skin section 1): 216000 ng/g; concentration at 7 h ([1]; section 2 (0.7-1.4 mm), topical, subject B, section 2 (0.7-1.4 mm), 7 hours after application, 8% sirolimus in capric acid:benzyl alcohol 50:50, read-out: Sirolimus concentration, skin section 2): 108000 ng/g; concentration at 7 h ([1]; section 2 (0.7-1.4 mm), topical, subject C, section 2 (0.7-1.4 mm), 7 hours after application, 8% sirolimus in capric acid:benzyl alcohol 50:50, read-out: Sirolimus concentration, skin section 2): 144000 ng/g; concentration at 7 h ([1]; section 2 (0.7-1.4 mm), topical, subject D, section 2 (0.7-1.4 mm), 7 hours after application, 8% sirolimus in capric acid:benzyl alcohol 50:50, read-out: Sirolimus concentration, skin section 2): 126000 ng/g; concentration at 7 h ([1]; section 3, topical, subject A, section 3, 7 hours after application, 8% sirolimus in capric acid:benzyl alcohol 50:50, read-out: Sirolimus concentration, skin section 3): 255000 ng/g; concentration at 7 h ([1]; section 3, topical, subject B, section 3, 7 hours after application, 8% sirolimus in capric acid:benzyl alcohol 50:50, read-out: Sirolimus concentration, skin section 3): 173000 ng/g; concentration at 7 h ([1]; section 3, topical, subject C, section 3, 7 hours after application, 8% sirolimus in capric acid:benzyl alcohol 50:50, read-out: Sirolimus concentration, skin section 3): 339000 ng/g; concentration at 7 h ([1]; section 3, topical, subject D, section 3, 7 hours after application, 8% sirolimus in capric acid:benzyl alcohol 50:50, read-out: Sirolimus concentration, skin section 3): 256000 ng/g; concentration at 7 h ([1]; section 4, topical, subject A, section 4, 7 hours after application, 8% sirolimus in capric acid:benzyl alcohol 50:50, read-out: Sirolimus concentration, skin section 4): 239000 ng/g; concentration at 7 h ([1]; section 4, topical, subject B, section 4, 7 hours after application, 8% sirolimus in capric acid:benzyl alcohol 50:50, read-out: Sirolimus concentration, skin section 4): 214000 ng/g; concentration at 7 h ([1]; section 4, topical, subject C, section 4, 7 hours after application, 8% sirolimus in capric acid:benzyl alcohol 50:50, read-out: Sirolimus concentration, skin section 4): 370000 ng/g; concentration at 7 h ([1]; section 4, topical, subject D, section 4, 7 hours after application, 8% sirolimus in capric acid:benzyl alcohol 50:50, read-out: Sirolimus concentration, skin section 4): 241000 ng/g; contact sensitivity to the topical preparations ([2]; 22 analysed patients, one to benzyl alcohol, one to sirolimus and one to both): Three of the twenty-two patients developed contact sensitivity; Ultrasound thickness, mean ([2]; psoriatic lesion, topical twice daily, 2.2% then 8% formulation, vehicle control 2.96, NS): 2.99 mm; Erythema measurement, mean ([2]; reflectance erythema metre, topical twice daily, 2.2% then 8% formulation, vehicle control 33.1, NS): 34.5 arbitrary units; Clinical Score, mean ([2]; scale of 0-24, high values indicating a better result, final score, topical twice daily, 2.2% formulation 6 weeks then 8% formulation 6 weeks, vehicle control 9.1, p = 0.032): 11.2; Ki-67 proliferating cells, mean [3]: 55 /mm^3; sirolimus levels in venous blood ([4]; 2.2% sirolimus in isopropyl myristate 40%, benzyl alcohol 10%, capric acid 50%, three individuals, MSGCMS): no significant levels of sirolimus were detected; sirolimus levels in venous blood ([4]; 8% sirolimus in capric acid:benzyl alcohol 50:50, four individuals, MSGCMS detects down to 0.1 ng/ml): no significant levels of sirolimus were detected; CD4 cells, mean [5]: 32.7 /mm^3; Sirolimus Concentration, lower skin segment ([6]; Subject B, Lower (2), roughly dermis): 0.5 µg/mg; Sirolimus Concentration, upper skin segment ([6]; Subject B, Upper (1), roughly epidermis): 1.5 µg/mg; concentration at 7 h ([6]; lower half (roughly dermis), Lower (2), roughly dermis, read-out: Sirolimus Concentration, lower skin segment): 333000 ng/g; concentration at 7 h ([6]; upper half (roughly epidermis), Upper (1), roughly epidermis, read-out: Sirolimus Concentration, upper skin segment): 0 ng/g
